The source made the active and inactive calls.
Tests used:
[1] = cells; conditions: HEK293
[2] = Luminescence Cell-Based Dose Response HTS to Identify Activators of Luciferase Translation or Activity in H4 […] Cells. [Related pubchem assays: 1829 (Project Summary), 1814 (Primary HTS)]; type: functional
[3] = tested on: H4; test: Luminescence Cell-Based Dose Response HTS to Identify Activators of 5'UTR Stem-Loop Driven Prion Protein mRNA Translation in H4 Neuroglioblastoma Cells. [Related pubchem assays: 1829 (Project Summary), 1814 (Primary HTS)]; type: functional; conditions: Homo sapiens
[4] = Luminescence Cell-Based Dose Confirmation HTS to Identify Activators of 5'UTR Stem-Loop Driven Alpha-Synuclein mRNA Translation in H4 Neuroglioblastoma Cells. [Related pubchem assays: 1829 (Project Summary), 1814 (Primary HTS)]; type: functional
[5] = target: Transthyretin (Homo sapiens, UniProt P02766); test: Luminescence-based cell-based high throughput dose response assay to identify activators of Transthyretin (TTR) transcription.; type: functional
[6] = target: T1, Protein RecA (Mycobacterium tuberculosis, UniProt P9WHJ3); test: Fluorescence Cell-Free Homogeneous Dose Retest to Identify Inhibitors of RecA-Intein Splicing Activity. [Related pubchem assays (depositor defined):AID2097, AID2223, AID489010, AID492950]; type: functional
T1 sequence (P9WHJ3 whole entry): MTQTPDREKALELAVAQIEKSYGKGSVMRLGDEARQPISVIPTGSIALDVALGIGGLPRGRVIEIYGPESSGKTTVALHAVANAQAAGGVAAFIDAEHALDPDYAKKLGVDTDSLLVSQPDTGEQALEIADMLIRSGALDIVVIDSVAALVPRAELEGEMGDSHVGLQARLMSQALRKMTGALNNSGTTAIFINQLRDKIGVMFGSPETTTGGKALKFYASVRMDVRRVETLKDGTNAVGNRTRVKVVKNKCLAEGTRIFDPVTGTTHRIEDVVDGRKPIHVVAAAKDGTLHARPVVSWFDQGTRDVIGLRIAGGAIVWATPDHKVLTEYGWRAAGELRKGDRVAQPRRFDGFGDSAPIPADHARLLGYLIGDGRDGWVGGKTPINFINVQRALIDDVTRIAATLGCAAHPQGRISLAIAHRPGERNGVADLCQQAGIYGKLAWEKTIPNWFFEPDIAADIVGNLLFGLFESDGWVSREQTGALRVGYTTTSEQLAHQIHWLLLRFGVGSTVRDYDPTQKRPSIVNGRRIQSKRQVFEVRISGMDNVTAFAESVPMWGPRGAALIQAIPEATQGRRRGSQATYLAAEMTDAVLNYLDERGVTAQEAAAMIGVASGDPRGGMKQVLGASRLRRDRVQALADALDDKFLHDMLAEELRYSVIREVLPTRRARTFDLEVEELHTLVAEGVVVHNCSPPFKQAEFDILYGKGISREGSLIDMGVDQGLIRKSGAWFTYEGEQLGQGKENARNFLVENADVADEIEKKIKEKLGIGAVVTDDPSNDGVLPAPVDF

[7] = target: Large T antigen (Simian virus 40, UniProt P03070); type: functional, Betapolyomavirus macacae;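 note: Confirmatory-stage PubChem screen for compounds that inhibit SV40 T antigen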
[8] = target: T2, Replicative DNA helicase DnaB (Mycobacterium tuberculosis, UniProt P9WMR3); test: DnaB intein splicing inhibitors, dose response, biochemical, cell-free fluorescence (AID 449749); type: functional
T2 sequence (P9WMR3 whole entry): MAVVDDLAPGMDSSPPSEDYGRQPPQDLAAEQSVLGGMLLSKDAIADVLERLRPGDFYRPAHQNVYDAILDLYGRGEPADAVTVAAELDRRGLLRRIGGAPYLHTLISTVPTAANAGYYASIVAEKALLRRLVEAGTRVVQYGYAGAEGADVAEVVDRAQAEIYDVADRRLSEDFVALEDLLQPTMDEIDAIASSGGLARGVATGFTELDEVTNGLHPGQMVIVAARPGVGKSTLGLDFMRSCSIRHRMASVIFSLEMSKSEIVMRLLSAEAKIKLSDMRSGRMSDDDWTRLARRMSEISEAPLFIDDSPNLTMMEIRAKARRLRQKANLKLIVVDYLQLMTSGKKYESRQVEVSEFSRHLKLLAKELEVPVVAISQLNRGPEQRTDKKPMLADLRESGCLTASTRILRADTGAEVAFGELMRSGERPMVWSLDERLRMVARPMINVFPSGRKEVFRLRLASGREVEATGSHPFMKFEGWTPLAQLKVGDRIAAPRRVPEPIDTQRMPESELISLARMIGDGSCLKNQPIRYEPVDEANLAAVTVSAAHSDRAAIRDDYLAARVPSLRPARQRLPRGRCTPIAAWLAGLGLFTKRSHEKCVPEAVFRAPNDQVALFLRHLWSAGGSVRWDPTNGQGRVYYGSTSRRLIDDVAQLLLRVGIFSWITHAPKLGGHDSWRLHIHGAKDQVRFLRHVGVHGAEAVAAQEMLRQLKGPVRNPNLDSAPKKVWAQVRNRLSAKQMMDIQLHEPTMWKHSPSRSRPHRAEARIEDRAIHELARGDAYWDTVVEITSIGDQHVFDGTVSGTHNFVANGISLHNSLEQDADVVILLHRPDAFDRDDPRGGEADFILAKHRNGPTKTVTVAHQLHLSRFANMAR

[9] = HEK293 Cytotoxicity Assay Measured in Cell-Based System Using Plate Reader - 7071-01_Inhibitor_Dose_CherryPick_Activity_Set2.; type: functional
[10] = tested on: HEK293; test: HEK293T cell cytotoxicity, dose response, cytotoxicity control, ATP luminescence, cherry-pick samples (AID 687005); type: functional, cell-based; conditions: Homo sapiens;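 note: cells exposed to compound for 48 hours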
[11] = A2780 ovarian cancer cell cytotoxicity, dose response, cytotoxicity control, plate reader, dry powder samples (AID 743046); type: functional, cell-based
[12] = IOSE-T80 ovarian epithelial cell cytotoxicity, dose response, cytotoxicity control for PAX8 inhibitor project, plate reader, dry powder samples (AID 743045); type: functional, cell-based
[13] = IGROV1 ovarian cancer cell cytotoxicity, dose response, PAX8 inhibitor project, plate reader, dry powder samples (AID 743043); type: functional, cell-based; conditions: IGROV-1
[14] = target: Paired box protein Pax-8 (Homo sapiens, UniProt Q06710); test: inhibitors of PAX8-driven TPO luciferase reporter, dose response, RMG-I cells, cherry-pick (AID 687027); type: functional, cell-based;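 note: luciferase reporter driven by Pax8 target thyroperoxidase promoter measured by SteadyGlo luminescence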
[15] = NIH:OVCAR-3 ovarian cancer cell cytotoxicity, dose response, PAX8 inhibitor project, plate reader, dry powder samples (AID 743044); type: functional, cell-based
[16] = cytotoxicity in OVCAR8 ovarian cancer cells, dose response, PAX8 project, cell-based, plate reader, dry powder samples (AID 743197); type: functional; conditions: OVCAR-8
[17] = target: Protein Tat (Human immunodeficiency virus type 1 group M subtype B (isolate HXB2)(HIV-1), UniProt P04608); type: functional;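 note: tat binding to TAR RNA read out by fluorescence polarization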
[18] = target: Metabotropic glutamate receptor 5 (Rattus norvegicus, UniProt P31424); test: Identification of a glycine sulfonamide based non-MPEP site positive allosteric potentiator (PAM) of mGlu5 (calcium_assay).; type: functional
[19] = target: T3, Mannose-6-phosphate isomerase (Homo sapiens, UniProt P34949); test: human PMI inhibitors, high substrate, primary screen, biochemical, fluorescence intensity, high mannose 6-phosphate (AID 1220)
T3 sequence (P34949 whole entry): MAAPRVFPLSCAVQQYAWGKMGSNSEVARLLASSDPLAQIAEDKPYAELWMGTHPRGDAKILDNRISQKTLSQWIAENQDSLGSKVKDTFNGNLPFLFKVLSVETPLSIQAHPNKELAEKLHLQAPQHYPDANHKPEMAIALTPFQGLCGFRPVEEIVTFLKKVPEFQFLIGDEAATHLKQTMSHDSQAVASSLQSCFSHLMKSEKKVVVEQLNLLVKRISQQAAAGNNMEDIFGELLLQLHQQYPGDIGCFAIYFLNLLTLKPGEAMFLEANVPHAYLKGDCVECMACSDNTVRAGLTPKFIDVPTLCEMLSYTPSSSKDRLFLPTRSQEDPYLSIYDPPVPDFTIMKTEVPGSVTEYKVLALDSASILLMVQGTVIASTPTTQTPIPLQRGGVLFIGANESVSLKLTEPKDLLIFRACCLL

[20] = target: RNA-editing ligase 1, mitochondrial (Trypanosoma brucei brucei, UniProt P86926); test: TbREL1 ligase inhibitors, dose response, biochemical, fluorescence, Trypanosoma brucei (AID 1117295); type: functional
[21] = target: Genome polyprotein (dengue virus type 2, UniProt P29990); test: Dengue-2 NS5 methyltransferase inhibitors, primary screen, biochemical, confirmation dose response (AID 588689); type: functional
[22] = target: T4, Histone-lysine N-methyltransferase NSD2 (Homo sapiens, UniProt O96028); type: biochemical
T4 sequence (O96028 whole entry): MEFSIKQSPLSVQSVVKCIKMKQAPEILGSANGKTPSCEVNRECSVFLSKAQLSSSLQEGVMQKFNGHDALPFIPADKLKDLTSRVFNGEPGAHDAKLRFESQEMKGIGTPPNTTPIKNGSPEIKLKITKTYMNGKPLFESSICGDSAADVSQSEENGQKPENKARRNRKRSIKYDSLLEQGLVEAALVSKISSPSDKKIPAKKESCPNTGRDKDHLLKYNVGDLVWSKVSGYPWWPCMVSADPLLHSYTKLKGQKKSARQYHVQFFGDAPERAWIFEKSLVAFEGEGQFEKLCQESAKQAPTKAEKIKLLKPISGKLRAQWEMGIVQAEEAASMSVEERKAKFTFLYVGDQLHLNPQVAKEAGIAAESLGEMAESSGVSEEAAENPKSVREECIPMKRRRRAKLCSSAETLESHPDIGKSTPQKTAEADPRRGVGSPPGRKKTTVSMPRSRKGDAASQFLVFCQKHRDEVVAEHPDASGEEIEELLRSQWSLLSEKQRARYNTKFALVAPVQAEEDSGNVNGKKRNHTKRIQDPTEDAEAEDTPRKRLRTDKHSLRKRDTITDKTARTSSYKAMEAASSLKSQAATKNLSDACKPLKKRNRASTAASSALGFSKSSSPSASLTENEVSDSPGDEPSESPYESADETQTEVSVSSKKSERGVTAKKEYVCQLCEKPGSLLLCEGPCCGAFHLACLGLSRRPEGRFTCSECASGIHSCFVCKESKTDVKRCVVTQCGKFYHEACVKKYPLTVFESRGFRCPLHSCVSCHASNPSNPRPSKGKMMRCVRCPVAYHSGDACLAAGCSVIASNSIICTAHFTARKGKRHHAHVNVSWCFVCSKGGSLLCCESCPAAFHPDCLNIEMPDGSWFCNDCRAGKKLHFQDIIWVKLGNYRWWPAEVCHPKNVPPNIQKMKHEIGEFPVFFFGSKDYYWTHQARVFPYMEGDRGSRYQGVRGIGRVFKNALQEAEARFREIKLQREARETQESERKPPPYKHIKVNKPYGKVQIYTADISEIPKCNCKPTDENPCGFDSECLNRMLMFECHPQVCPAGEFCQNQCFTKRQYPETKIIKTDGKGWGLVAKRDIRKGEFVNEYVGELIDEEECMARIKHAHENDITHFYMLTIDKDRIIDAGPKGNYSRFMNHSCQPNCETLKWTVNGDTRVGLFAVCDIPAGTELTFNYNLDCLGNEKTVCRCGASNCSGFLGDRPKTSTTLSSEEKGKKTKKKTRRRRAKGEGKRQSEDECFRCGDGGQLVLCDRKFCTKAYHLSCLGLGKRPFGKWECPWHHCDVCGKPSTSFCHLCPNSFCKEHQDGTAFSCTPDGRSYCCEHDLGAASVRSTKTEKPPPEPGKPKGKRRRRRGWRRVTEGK

[23] = target: Induced myeloid leukemia cell differentiation protein Mcl-1 (Homo sapiens, UniProt Q07820); type: functional
[24] = TRPM1 promoter luciferase reporter signal decrease, dose response, MITF inhibitor project, cell-based, SK-MEL-5, dry powder, set 8 (AID 624430); type: functional
[25] = MITF Orthogonal Assay: SK-MEL-5 CTG Assay Measured in Cell-Based System Using Plate Reader - 2084-02_Inhibitor_Dose_DryPowder_Activity_Set7.; type: functional
[26] = MITF: Counter assay: A375 proliferation Measured in Cell-Based System Using Plate Reader - 2084-03_Inhibitor_Dose_DryPowder_Activity_Set8.; type: functional; conditions: A-375

Metabotropic glutamate receptor 5, sequence (P31424 whole entry): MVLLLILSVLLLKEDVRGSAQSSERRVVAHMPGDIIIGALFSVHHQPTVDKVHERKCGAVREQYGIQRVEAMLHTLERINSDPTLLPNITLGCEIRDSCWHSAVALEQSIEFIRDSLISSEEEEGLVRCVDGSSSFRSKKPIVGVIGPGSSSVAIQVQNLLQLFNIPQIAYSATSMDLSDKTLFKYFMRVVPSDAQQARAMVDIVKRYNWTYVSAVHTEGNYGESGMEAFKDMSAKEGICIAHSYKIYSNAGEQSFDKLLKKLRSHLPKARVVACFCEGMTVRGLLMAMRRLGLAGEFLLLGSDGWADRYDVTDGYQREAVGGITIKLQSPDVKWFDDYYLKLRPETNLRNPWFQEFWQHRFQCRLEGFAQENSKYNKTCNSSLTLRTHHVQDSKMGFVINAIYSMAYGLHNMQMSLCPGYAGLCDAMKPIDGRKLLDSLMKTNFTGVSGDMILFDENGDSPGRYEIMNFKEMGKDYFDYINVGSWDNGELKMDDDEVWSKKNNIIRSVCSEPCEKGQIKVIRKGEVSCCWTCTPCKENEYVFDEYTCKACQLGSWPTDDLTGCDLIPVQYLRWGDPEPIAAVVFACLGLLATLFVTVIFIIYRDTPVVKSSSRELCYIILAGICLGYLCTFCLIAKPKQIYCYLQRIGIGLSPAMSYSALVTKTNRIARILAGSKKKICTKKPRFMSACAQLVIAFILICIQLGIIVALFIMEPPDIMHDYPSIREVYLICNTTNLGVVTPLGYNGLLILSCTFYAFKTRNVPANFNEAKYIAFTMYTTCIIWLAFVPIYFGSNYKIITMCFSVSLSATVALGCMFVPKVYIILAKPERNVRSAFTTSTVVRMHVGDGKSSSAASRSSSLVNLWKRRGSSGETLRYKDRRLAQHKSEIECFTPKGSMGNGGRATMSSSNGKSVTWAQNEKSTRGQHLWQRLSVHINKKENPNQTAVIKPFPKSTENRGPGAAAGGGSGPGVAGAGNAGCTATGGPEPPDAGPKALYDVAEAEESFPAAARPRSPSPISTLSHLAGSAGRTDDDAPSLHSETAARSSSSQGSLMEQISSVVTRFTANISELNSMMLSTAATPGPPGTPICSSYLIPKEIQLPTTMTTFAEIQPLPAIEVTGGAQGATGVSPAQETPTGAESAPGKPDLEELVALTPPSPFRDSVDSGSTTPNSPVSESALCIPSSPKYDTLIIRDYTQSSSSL
Paired box protein Pax-8, sequence (Q06710 whole entry): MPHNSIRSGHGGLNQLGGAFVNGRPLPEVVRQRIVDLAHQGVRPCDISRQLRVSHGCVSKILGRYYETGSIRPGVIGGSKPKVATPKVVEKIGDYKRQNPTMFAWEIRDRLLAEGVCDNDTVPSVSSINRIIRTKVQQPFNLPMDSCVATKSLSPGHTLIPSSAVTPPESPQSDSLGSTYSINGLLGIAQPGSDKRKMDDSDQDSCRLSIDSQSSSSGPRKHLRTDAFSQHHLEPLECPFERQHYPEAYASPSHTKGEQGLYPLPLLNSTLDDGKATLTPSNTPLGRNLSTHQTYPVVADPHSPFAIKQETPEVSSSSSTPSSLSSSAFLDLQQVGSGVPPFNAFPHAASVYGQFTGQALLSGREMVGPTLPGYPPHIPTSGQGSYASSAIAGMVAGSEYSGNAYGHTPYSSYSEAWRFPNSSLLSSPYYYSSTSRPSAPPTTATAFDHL
Large T antigen, sequence (P03070 whole entry): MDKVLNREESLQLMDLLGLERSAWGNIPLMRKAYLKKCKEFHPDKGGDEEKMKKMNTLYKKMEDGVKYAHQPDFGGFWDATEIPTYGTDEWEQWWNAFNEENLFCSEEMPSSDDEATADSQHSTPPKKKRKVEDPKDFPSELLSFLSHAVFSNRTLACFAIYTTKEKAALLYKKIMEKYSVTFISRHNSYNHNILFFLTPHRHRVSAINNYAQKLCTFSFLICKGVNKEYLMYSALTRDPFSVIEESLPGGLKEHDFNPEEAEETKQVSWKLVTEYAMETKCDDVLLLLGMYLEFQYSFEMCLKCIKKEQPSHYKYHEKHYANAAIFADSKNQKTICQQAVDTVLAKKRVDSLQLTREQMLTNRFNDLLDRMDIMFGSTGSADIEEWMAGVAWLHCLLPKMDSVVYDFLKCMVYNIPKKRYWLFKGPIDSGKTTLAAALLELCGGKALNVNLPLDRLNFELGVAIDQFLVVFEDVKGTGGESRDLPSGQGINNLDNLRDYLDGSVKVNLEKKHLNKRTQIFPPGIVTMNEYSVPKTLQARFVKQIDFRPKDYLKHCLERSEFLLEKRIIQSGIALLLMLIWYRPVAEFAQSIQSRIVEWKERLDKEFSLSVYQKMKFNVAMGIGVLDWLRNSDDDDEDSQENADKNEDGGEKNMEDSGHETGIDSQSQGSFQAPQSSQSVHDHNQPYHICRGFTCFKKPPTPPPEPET
Induced myeloid leukemia cell differentiation protein Mcl-1, sequence (Q07820 whole entry): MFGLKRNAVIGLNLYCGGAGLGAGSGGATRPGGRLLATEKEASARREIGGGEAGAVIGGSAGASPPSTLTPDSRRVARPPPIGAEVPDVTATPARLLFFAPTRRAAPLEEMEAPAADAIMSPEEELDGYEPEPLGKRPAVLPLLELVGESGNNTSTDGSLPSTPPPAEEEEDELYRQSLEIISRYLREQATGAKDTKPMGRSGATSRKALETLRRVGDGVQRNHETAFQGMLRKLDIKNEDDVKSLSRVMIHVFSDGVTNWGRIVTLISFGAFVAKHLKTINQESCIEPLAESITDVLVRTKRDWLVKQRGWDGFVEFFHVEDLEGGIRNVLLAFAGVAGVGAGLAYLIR
Genome polyprotein, sequence (P29990 2492-3391 limits assumed): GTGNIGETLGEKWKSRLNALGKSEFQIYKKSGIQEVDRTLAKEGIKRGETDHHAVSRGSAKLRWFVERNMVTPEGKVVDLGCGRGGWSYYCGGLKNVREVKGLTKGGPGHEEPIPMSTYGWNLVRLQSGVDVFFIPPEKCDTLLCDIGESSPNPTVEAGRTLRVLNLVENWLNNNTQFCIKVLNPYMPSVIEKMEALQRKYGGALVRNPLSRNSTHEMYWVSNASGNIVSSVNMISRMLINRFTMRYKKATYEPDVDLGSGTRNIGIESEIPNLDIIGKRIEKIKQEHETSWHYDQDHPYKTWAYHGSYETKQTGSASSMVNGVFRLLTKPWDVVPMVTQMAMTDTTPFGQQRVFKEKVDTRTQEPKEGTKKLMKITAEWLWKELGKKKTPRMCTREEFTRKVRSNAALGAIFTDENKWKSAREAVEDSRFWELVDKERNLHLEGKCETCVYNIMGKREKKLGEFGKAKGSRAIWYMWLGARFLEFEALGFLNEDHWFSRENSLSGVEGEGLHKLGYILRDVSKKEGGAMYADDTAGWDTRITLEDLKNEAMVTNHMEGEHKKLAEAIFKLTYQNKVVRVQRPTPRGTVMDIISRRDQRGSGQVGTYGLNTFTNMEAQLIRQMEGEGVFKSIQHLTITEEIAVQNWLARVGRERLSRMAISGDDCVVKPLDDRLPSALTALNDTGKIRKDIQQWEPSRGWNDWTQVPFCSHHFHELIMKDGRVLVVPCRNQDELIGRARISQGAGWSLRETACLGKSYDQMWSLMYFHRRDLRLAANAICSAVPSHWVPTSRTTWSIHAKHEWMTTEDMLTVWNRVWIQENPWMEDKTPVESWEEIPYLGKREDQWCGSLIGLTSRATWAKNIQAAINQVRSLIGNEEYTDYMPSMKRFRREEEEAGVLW
Protein Tat, sequence (P04608 whole entry): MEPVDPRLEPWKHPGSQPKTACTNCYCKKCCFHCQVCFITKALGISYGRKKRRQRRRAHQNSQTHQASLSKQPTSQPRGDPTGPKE
RNA-editing ligase 1, mitochondrial, sequence (P86926 whole entry): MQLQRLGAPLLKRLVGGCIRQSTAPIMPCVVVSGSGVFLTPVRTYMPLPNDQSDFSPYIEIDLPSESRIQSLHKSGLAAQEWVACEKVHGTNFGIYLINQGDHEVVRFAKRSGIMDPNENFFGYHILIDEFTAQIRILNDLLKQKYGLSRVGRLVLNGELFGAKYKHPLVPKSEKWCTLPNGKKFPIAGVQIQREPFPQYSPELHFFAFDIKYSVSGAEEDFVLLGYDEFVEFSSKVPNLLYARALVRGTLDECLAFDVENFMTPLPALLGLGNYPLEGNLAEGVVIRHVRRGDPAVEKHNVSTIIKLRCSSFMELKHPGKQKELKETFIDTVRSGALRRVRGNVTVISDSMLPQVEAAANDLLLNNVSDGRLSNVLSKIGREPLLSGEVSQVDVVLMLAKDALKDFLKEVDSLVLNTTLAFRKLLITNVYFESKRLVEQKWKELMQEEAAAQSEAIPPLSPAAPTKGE

## CSc1nc2ccccc2n1CCOc1ccccc1
[1]
  AC50: > 52 µM (inactive)

## c1ccc(Sc2ncnc3c2oc2ccccc23)nc1
[2]
  EC50: 26.6 µM (active)
[3]
  EC50: 90.1 µM (active)
[4]
  EC50: 4.69 µM (active)
[5]
  EC50: > 167 µM (inactive)

## O=C(CCl)c1cc2c3c(c1)CC(=O)N3CCC2
[6]
  EC50: 11.7 µM (active)
[7]
  IC50: 40.6 µM (active)
[5]
  EC50: > 167 µM (inactive)
[8]
  AC50: 35.9 µM (active)

## CCS(=O)(=O)NCC[C@H]1CC[C@H](NS(=O)(=O)c2cccc(F)c2)[C@H](CO)O1
[9]
  AC50: 33.5 µM (active)
[10]
  AC50: 33.5 µM (active)

## COc1ccc(S(=O)(=O)Nc2ccc3c(c2)C(=O)N([C@H](C)CO)C[C@H](C)[C@@H](CN(C)S(=O)(=O)c2ccc(C)cc2)OCCCC[C@H](C)O3)cc1
[11]
  AC50: 44 µM (active)
[12]
  AC50: 9.47 µM (active)
[13]
  AC50: 33.5 µM (active)
[14]
  AC50: 6.27 µM (active)
[15]
  AC50: 11.8 µM (active)
[16]
  AC50: 14.8 µM (active)

## Cn1c(SCC(=O)c2cc(Cl)c(Cl)s2)nnc1-c1ccco1
[17]
  IC50: > 50 µM (active)

## CS(=O)(=O)N(CC(=O)Nc1cccnc1F)c1ccccc1Cl
[18]
  EC50: 1.69 µM

## O=C(Cc1csc(N2CCOCC2)n1)N/N=C/c1ccc(O)c(O)c1O
[19]
  IC50: 8.94 µM (active)
[20]
  IC50: > 96.6 µM (inactive)
[21]
  IC50: > 100 µM (active)
[22]
  AC50: > 20 µM (inactive)
[23]
  IC50: 3.52 µM (active)

## C[C@@H]1CCCCO[C@@H](CN(C)CC2CCCCC2)[C@H](C)CN([C@H](C)CO)C(=O)c2cc(NS(=O)(=O)c3ccc(Cl)cc3)ccc2O1
[11]
  AC50: 20.4 µM (active)
[12]
  AC50: 41.4 µM (active)
[13]
  AC50: 33.5 µM (active)
[14]
  AC50: 5.5 µM (active)
[15]
  AC50: 23.4 µM (active)
[16]
  AC50: 25.6 µM (active)

## CN(C(=O)CN(c1ccccc1Cl)S(C)(=O)=O)c1ccccc1
[18]
  EC50: 10 µM (inconclusive)

## O=C(C[C@@H]1CC[C@H]2[C@@H](COC[C@@H](O)CN2Cc2ccc(Cl)cc2)O1)NCc1cccc(F)c1
[9]
  AC50: 21.4 µM (active)
[10]
  AC50: 21.4 µM (active)

## O=C1C(Nc2ccccc2)=CC(=O)c2ncccc21
[24]
  AC50: 0.413 µM (active)
[25]
  AC50: 0.195 µM (active)
[26]
  AC50: 16.2 µM (active)
